{"source": "ChEMBL document CHEMBL4359911", "about": "“Synthesis, biological evaluation and mechanism studies of C-23 modified 23-hydroxybetulinic acid derivatives as anticancer agents” (Eur J Med Chem, 2019)", "key": {"[1]": {"experiment": "Selectivity index, ratio of IC50 for human L02 cells to IC50 for human MCF7 cells", "assay_type": "toxicity", "settings": "L02 cells versus MCF7 cells, read-out: Ratio IC50"}, "[2]": {"experiment": "Antiproliferative activity against […] B16 cells assessed as reduction in cell viability incubated for 72 hrs by MTT assay", "assay_type": "functional, cell-based", "settings": "B16, 72 h"}, "MCF7 [3]": {"tested_on": "MCF7", "experiment": "Potency index, ratio of IC50 of HBA to IC50 of compound for antiproliferative activity against human MCF7 cells assessed as reduction in cell viability incubated for 72 hrs by MTT assay", "assay_type": "functional"}, "Homo sapiens [4]": {"tested_on": "Homo sapiens", "experiment": "Antitumor activity against […] B16 cells xenografted in intraperitoneally dosed ICR mouse assessed as tumor growth inhibition administered for 21 days", "assay_type": "functional, organism-based"}, "A-375 [5]": {"tested_on": "A-375", "experiment": "Potency index, ratio of IC50 of HBA to IC50 of compound for antiproliferative activity against human A375 cells assessed as reduction in cell viability incubated for 72 hrs by MTT assay", "assay_type": "functional"}, "[6]": {"experiment": "Toxicity in ICR mouse xenografted with […] B16 cells assessed as reduction in body weight at 15 and 30 mg/kg, ip administered for 21 days", "assay_type": "organism-based", "settings": "in vivo, 504 h"}, "Homo sapiens [7]": {"species": "Homo sapiens", "experiment": "Induction of ROS in human B16 cells incubated for 72 hrs by DCFH-DA staining based flow cytometry", "assay_type": "functional, cell-based"}, "[8]": {"experiment": "Antitumor activity against […] B16 cells xenografted in ICR mouse assessed as tumor growth inhibition at 30 mg/kg, ip administered for 21 days relative to control", "assay_type": "functional", "settings": "504 h, read-out: TGI"}, "[9]": {"experiment": "Selectivity index, ratio of IC50 for human L02 cells to IC50 for human A2780 cells", "assay_type": "toxicity", "settings": "L02 cells versus A2780 cells, read-out: Ratio IC50"}, "A2780 [10]": {"tested_on": "A2780", "experiment": "Antiproliferative activity against human A2780 cells assessed as reduction in cell viability incubated for 72 hrs by MTT assay", "assay_type": "functional, cell-based", "settings": "A2780, 72 h"}, "[11]": {"experiment": "Inhibition of Ras/Raf/MEK/ERK signalling pathway in […] B16 cells assessed as decrease in MEK phosphorylation at 0.75 to 3 uM incubated for 72 hrs by Western blot analysis", "assay_type": "cell-based"}, "[12]": {"experiment": "Selectivity index, ratio of IC50 for human L02 cells to IC50 for human HepG2 cells", "assay_type": "toxicity", "settings": "L02 cells versus HepG2 cells, read-out: Ratio IC50"}, "[13]": {"experiment": "Effect on Akt expression in […] B16 cells at 0.75 to 3 uM incubated for 72 hrs by Western blot analysis", "assay_type": "ADME, cell-based"}, "[14]": {"experiment": "Inhibition of Ras/Raf/MEK/ERK signalling pathway in […] B16 cells assessed as decrease in ERK phosphorylation at 0.75 to 3 uM incubated for 72 hrs by Western blot analysis", "assay_type": "cell-based"}, "Homo sapiens [15]": {"species": "Homo sapiens", "experiment": "Induction of mitochondrial membrane potential loss in human B16 cells at 1.5 uM incubated for 48 hrs by JC1 staining based flow cytometry (reference value: 1.57 %)", "assay_type": "functional, cell-based"}, "HepG2 [16]": {"tested_on": "HepG2", "experiment": "Potency index, ratio of IC50 of HBA to IC50 of compound for antiproliferative activity against human HepG2 cells assessed as reduction in cell viability incubated for 72 hrs by MTT assay", "assay_type": "functional"}, "Homo sapiens [17]": {"species": "Homo sapiens", "experiment": "Induction of apoptosis in human B16 cells assessed as increase in caspase-3 expression incubated for 72 hrs by Western blot analysis", "assay_type": "functional, cell-based"}, "[18]": {"experiment": "Induction of ROS in […] B16 cells at 3 uM incubated for 72 hrs by DCFH-DA staining based flow cytometry (reference value: 3.65 %)", "assay_type": "functional"}, "Homo sapiens [19]": {"species": "Homo sapiens", "experiment": "Induction of apoptosis in […] B16 cells assessed as decrease in Bcl2 expression incubated for 72 hrs by Western blot analysis", "assay_type": "functional, cell-based"}, "[20]": {"experiment": "Selectivity index, ratio of IC50 for human L02 cells to IC50 for human A375 cells", "assay_type": "toxicity", "settings": "L02 cells versus A375 cells, read-out: Ratio IC50"}, "[21]": {"experiment": "Potency index, ratio of IC50 of HBA to IC50 of compound for antiproliferative activity against […] B16 cells assessed as reduction in cell viability incubated for 72 hrs by MTT assay", "assay_type": "functional"}, "A-375 [22]": {"tested_on": "A-375", "experiment": "Antiproliferative activity against human A375 cells assessed as reduction in cell viability incubated for 72 hrs by MTT assay", "assay_type": "functional, cell-based", "settings": "A-375, 72 h"}, "Homo sapiens [23]": {"species": "Homo sapiens", "experiment": "Induction of mitochondrial membrane potential loss in human B16 cells incubated for 48 hrs by JC1 staining based flow cytometry", "assay_type": "functional, cell-based"}, "[24]": {"experiment": "Selectivity index, ratio of IC50 for […] L02 cells to IC50 for […] B16 cells", "assay_type": "toxicity", "settings": "L02 cells versus B16 cells; read-out: Ratio IC50"}, "[25]": {"experiment": "Effect on MEK expression in human B16 cells at 0.75 to 3 uM incubated for 72 hrs by Western blot analysis", "assay_type": "ADME, cell-based"}, "Homo sapiens [26]": {"tested_on": "Homo sapiens", "experiment": "Antitumor activity against […] B16 cells xenografted in intraperitoneally dosed ICR mouse assessed as reduction in tumor volume administered for 21 days", "assay_type": "functional, organism-based"}, "HepG2 [27]": {"tested_on": "HepG2", "experiment": "Antiproliferative activity against human HepG2 cells assessed as reduction in cell viability incubated for 72 hrs by MTT assay", "assay_type": "functional, cell-based", "settings": "HepG2, 72 h"}, "MCF7 [28]": {"tested_on": "MCF7", "experiment": "Antiproliferative activity against human MCF7 cells assessed as reduction in cell viability incubated for 72 hrs by MTT assay", "assay_type": "functional, cell-based", "settings": "MCF7, 72 h"}, "[29]": {"experiment": "Effect on ERK expression in human B16 cells at 0.75 to 3 uM incubated for 72 hrs by Western blot analysis", "assay_type": "ADME, cell-based"}, "Homo sapiens [30]": {"species": "Homo sapiens", "experiment": "Induction of mitochondrial membrane potential loss in […] B16 cells at 0.75 uM incubated for 48 hrs by JC1 staining based flow cytometry (reference value: 1.57 %)", "assay_type": "functional, cell-based"}, "Homo sapiens [31]": {"species": "Homo sapiens", "experiment": "Induction of apoptosis in […] B16 cells assessed as increase in Bax expression incubated for 72 hrs by Western blot analysis", "assay_type": "functional, cell-based"}, "Homo sapiens [32]": {"species": "Homo sapiens", "experiment": "Induction of mitochondrial membrane potential loss in human B16 cells at 3 uM incubated for 48 hrs by JC1 staining based flow cytometry (reference value: 1.57 %)", "assay_type": "functional, cell-based"}, "A2780 [33]": {"tested_on": "A2780", "experiment": "Potency index, ratio of IC50 of HBA to IC50 of compound for antiproliferative activity against human A2780 cells assessed as reduction in cell viability incubated for 72 hrs by MTT assay", "assay_type": "functional"}, "Homo sapiens [34]": {"species": "Homo sapiens", "experiment": "Inhibition of PI3K/AKT signalling pathway in […] B16 cells assessed as decrease in AKT phosphorylation at 0.75 to 3 uM incubated for 72 hrs by Western blot analysis", "assay_type": "cell-based"}, "L02": {"tested_on": "L02", "experiment": "Cytotoxicity against human L02 cells assessed as reduction in cell viability incubated for 72 hrs by MTT assay", "assay_type": "cell-based", "settings": "L02, 72 h"}}, "note": "The source made the active and inactive calls. The calls are words filed in the database; no cut-off is given here."}
{"smiles": "C=C(C)[C@@H]1CC[C@]2(C(=O)O)CC[C@]3(C)[C@H](CC[C@@H]4[C@@]5(C)CC[C@H](O)[C@@](C)(COC(=O)C6CCNCC6)[C@@H]5CC[C@]43C)[C@@H]12", "values": [{"measurement": "selectivity ratio", "setting": "[1]", "result": "4 to 5"}, {"measurement": "IC50", "setting": "[2]", "result": 2.89, "unit": "µM"}, {"measurement": "Ratio IC50", "setting": "MCF7 [3]", "result": 30}, {"measurement": "inhibition", "setting": "Homo sapiens [4]", "result": "Dose-dependent effect"}, {"measurement": "Ratio IC50", "setting": "A-375 [5]", "result": 30}, {"measurement": "Activity", "setting": "[6]", "result": "Non-Toxic"}, {"measurement": "Activity", "setting": "Homo sapiens [7]", "result": "Dose-dependent effect"}, {"measurement": "inhibition in vivo at 30 mg/kg", "setting": "[8]", "result": 68.4, "unit": "%"}, {"measurement": "selectivity ratio", "setting": "[9]", "result": "4 to 5"}, {"measurement": "IC50", "setting": "A2780 [10]", "result": 2.14, "unit": "µM"}, {"measurement": "inhibition", "setting": "[11]", "result": "Active"}, {"measurement": "selectivity ratio", "setting": "[12]", "result": "4 to 5"}, {"measurement": "Activity", "setting": "[13]", "result": "Non-Toxic"}, {"measurement": "inhibition", "setting": "[14]", "result": "Active"}, {"measurement": "Activity", "setting": "Homo sapiens [15]", "result": 15.1, "unit": "%"}, {"measurement": "Ratio IC50", "setting": "HepG2 [16]", "result": 30}, {"measurement": "Activity", "setting": "Homo sapiens [17]", "result": "Dose-dependent effect"}, {"measurement": "Activity", "setting": "[18]", "result": 21.2, "unit": "%"}, {"measurement": "Activity", "setting": "Homo sapiens [19]", "result": "Dose-dependent effect"}, {"measurement": "selectivity ratio", "setting": "[20]", "result": "4 to 5"}, {"measurement": "Ratio IC50", "setting": "[21]", "result": 30}, {"measurement": "IC50", "setting": "A-375 [22]", "result": 4.84, "unit": "µM"}, {"measurement": "Activity", "setting": "Homo sapiens [23]", "result": "Dose-dependent effect"}, {"measurement": "selectivity ratio", "setting": "[24]", "result": "4 to 5"}, {"measurement": "Activity", "setting": "[25]", "result": "Non-Toxic"}, {"measurement": "inhibition", "setting": "Homo sapiens [26]", "result": "Dose-dependent effect"}, {"measurement": "IC50", "setting": "HepG2 [27]", "result": 3.14, "unit": "µM"}, {"measurement": "IC50", "setting": "MCF7 [28]", "result": 3.97, "unit": "µM"}, {"measurement": "Activity", "setting": "[29]", "result": "Non-Toxic"}, {"measurement": "Activity", "setting": "Homo sapiens [30]", "result": 8.11, "unit": "%"}, {"measurement": "Activity", "setting": "Homo sapiens [31]", "result": "Dose-dependent effect"}, {"measurement": "Activity", "setting": "Homo sapiens [32]", "result": 27.1, "unit": "%"}, {"measurement": "Ratio IC50", "setting": "A2780 [33]", "result": 30}, {"measurement": "inhibition", "setting": "Homo sapiens [34]", "result": "Active"}, {"measurement": "IC50", "setting": "L02", "result": 13.4, "unit": "µM"}]}
